Results taken from the supplement of paper PMC11061612.

Assays:
Test in all cases: Bliss excess, mean over the matrix (fraction); higher = more synergy
42-MG-BA (Glioblastoma) = system: 42-MG-BA (Glioblastoma)
Method in brief: (§1)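 Cell lines in DMEM/F12 or RPMI with 10% FBS were plated in 1536-well plates, held 24 hours at 37°C, 5% CO2, then given two-drug dose matrices for 72 hours (DMSO typically 0.2%). Viability was read by CellTiter-Glo 2.0 luminescence and scaled as inhibition from 0 (vehicle wells) to 1 (blank wells). Combination Emax is the second-highest inhibition in the matrix; Bliss excess is observed combination effect minus expected EA + EB − EA·EB, EA and EB being single-agent effects.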

AGS (Gastric Carcinoma) = system: AGS (Gastric Carcinoma)
Method in brief: as §1

[1] = system: CCRF-CEM (T-Lymphoblastic Leukemia)
Method in brief: as §1

[2] = system: COLO-205 (Colorectal Carcinoma)
Method in brief: as §1

[3] = system: Daoy (Other Solid Carcinomas)
Method in brief: as §1

[4] = system: HCC-78 (Lung Adenocarcinoma)
Method in brief: as §1

HOS (Osteosarcoma) = system: HOS (Osteosarcoma)
Method in brief: as §1

[5] = system: Hs-578-T (Breast Carcinoma)
Method in brief: as §1

KELLY (Neuroblastoma) = system: KELLY (Neuroblastoma)
Method in brief: as §1

[6] = system: KURAMOCHI (Ovarian Carcinoma)
Method in brief: as §1

[7] = system: LB831-BLC (Bladder Carcinoma)
Method in brief: as §1

[8] = system: LU-135 (Small Cell Lung Carcinoma)
Method in brief: as §1

[9] = system: ME-1 (Acute Myeloid Leukemia)
Method in brief: as §1

[10] = system: NCI-H82 (Small Cell Lung Carcinoma)
Method in brief: as §1

[11] = system: OVCA420 (Ovarian Carcinoma)
Method in brief: as §1

[12] = system: RC-K8 (B-Cell Non-Hodgkin's Lymphoma)
Method in brief: as §1

[13] = system: RO82-W-1 (Thyroid Gland Carcinoma)
Method in brief: as §1

[14] = system: SNU-5 (Gastric Carcinoma)
Method in brief: as §1

T98G (Glioblastoma) = system: T98G (Glioblastoma)
Method in brief: as §1

[15] = system: TE-15 (Esophageal Squamous Cell Carcinoma)
Method in brief: as §1

| SMILES | Bliss excess (42-MG-BA (Glioblastoma)) | Bliss excess (AGS (Gastric Carcinoma)) | Bliss excess [1] | Bliss excess [2] | Bliss excess [3] | Bliss excess [4] | Bliss excess (HOS (Osteosarcoma)) | Bliss excess [5] | Bliss excess (KELLY (Neuroblastoma)) | Bliss excess [6] | Bliss excess [7] | Bliss excess [8] | Bliss excess [9] | Bliss excess [10] | Bliss excess [11] | Bliss excess [12] | Bliss excess [13] | Bliss excess [14] | Bliss excess (T98G (Glioblastoma)) | Bliss excess [15] |
| --- | --- | --- | --- | --- | --- | --- | --- | --- | --- | --- | --- | --- | --- | --- | --- | --- | --- | --- | --- | --- |
| Cc1c2c(nn1C)CSCc1cc(n(C)n1)CSc1cc(c3ccccc3c1)OCCCc1c(C(=O)O)n(C)c3c-2c(Cl)ccc13 [AZD5991] + C[C@@H]1COCCN1C2=NC(=NC(=C2)C3(CC3)[S@](=N)(=O)C)C4=C5C=CNC5=NC=C4 [AZD6738] (first compound max 1 µM, 7x7, partner max 10 µM) | 0.041 | 0.0629 | 0.0397 | 0.0116 | 0.0268 | 0.0028 | 0.0356 | -0.0254 | 0.0647 | 0.0587 | 0.0641 | 0.0274 | 0.0454 | -0.0218 | 0.0076 | 0.0114 | -0.0303 | -0.0075 | -0.0069 | -0.0441 |
| Cc1c2c(nn1C)CSCc1cc(n(C)n1)CSc1cc(c3ccccc3c1)OCCCc1c(C(=O)O)n(C)c3c-2c(Cl)ccc13 [AZD5991] + C[C@@H](Nc1cc(F)cc(F)c1)c1cc(C(=O)N(C)C)cc2c(=O)cc(N3CCOCC3)oc12 [AZD8186] (first compound max 1 µM, 7x7, partner max 3 µM) | -0.0084 | 0.0073 | 0.0055 | -0.0444 | 0.0289 | -0.005 | -0.0169 | -0.126 | 0.0259 | 0.039 | 0.0352 | 0.0307 | -0.037 | -0.0121 | -0.0274 | -0.0418 | 0.0066 | 0.0155 | -0.001 | -0.0254 |
| Cc1c2c(nn1C)CSCc1cc(n(C)n1)CSc1cc(c3ccccc3c1)OCCCc1c(C(=O)O)n(C)c3c-2c(Cl)ccc13 [AZD5991] + Cc1cc2ncnn2cc1Nc1ncc2c(n1)n(C1CCOCC1)c(=O)n2C [AZD7648] (first compound max 1 µM, 7x7, partner max 10 µM) | -0.0299 | -0.037 | 0.0837 | -0.0604 | -0.0069 | -0.016 | -0.0036 | -0.0058 | -0.0368 | -0.0228 | -0.034 | -0.0237 | 0.013 | 0.0174 | -0.0531 | 0.0148 | -0.0503 | 0.0269 | -0.0663 | -0.0325 |
| Cc1c2c(nn1C)CSCc1cc(n(C)n1)CSc1cc(c3ccccc3c1)OCCCc1c(C(=O)O)n(C)c3c-2c(Cl)ccc13 [AZD5991] + Cn1cnc2c(F)c(Nc3ccc(Br)cc3Cl)c(C(=O)NOCCO)cc21 [Selumetinib] (first compound max 1 µM, 7x7, partner max 3 µM) | -0.03 | 0.186 | 0.0383 | 0.0145 | 0.02 | -0.0245 | -0.0261 | -0.0568 | 0.0281 | 0.031 | -0.018 | -0.0003 | 0.162 | -0.0406 | 0.0316 | 0.0127 | -0.0528 | 0.0262 | 0.0157 | 0.0114 |
| NC1(C(=O)N[C@@H](CCO)c2ccc(Cl)cc2)CCN(c2ncnc3[nH]ccc23)CC1 [Capivasertib] + CC(=O)c1c(C)c2cnc(Nc3ccc(N4CCNCC4)cn3)nc2n(C2CCCC2)c1=O [Palbociclib] (first compound max 10 µM, 7x7, partner max 10 µM) | -0.0633 | 0.0794 | 0.0861 | 0.0317 | 0.0306 | -0.0134 | 0.0023 | 0.0324 | 0.151 | -0.0124 | -0.0586 | -0.0357 | -0.11 | -0.0229 | 0.0261 | -0.0014 | -0.0125 | -0.0253 | 0.0304 | 0.0281 |
| NC1(C(=O)N[C@@H](CCO)c2ccc(Cl)cc2)CCN(c2ncnc3[nH]ccc23)CC1 [Capivasertib] + CC(C)n1c(=O)n(C)c2cnc3cc(F)c(-c4ccc(OCCCN5CCCCC5)nc4)cc3c21 [AZD1390] (first compound max 10 µM, 7x7, partner max 0.3 µM) | -0.0608 | -0.108 | -0.0847 | -0.0605 | -0.0281 | -0.0434 | -0.0278 | -0.0363 | -0.0322 | -0.0085 | -0.0383 | -0.0242 | -0.0319 | 0.0005 | -0.0406 | -0.0149 | -0.0236 | -0.0708 | -0.0652 | -0.0774 |
| NC1(C(=O)N[C@@H](CCO)c2ccc(Cl)cc2)CCN(c2ncnc3[nH]ccc23)CC1 [Capivasertib] + CCN(CCO)CCCOc1ccc2c(Nc3cc(CC(=O)Nc4cccc(F)c4)[nH]n3)ncnc2c1 [AZD2811] (first compound max 10 µM, 7x7, partner max 1 µM) | -0.0306 | 0.0129 | 0.0001 | -0.0551 | 0.0146 | -0.015 | -0.0107 | -0.036 | -0.0045 | -0.0444 | -0.0179 | -0.0334 | -0.055 | 0.0054 | -0.017 | -0.0114 | -0.0598 | -0.0103 | 0.0344 | -0.0095 |
| NC1(C(=O)N[C@@H](CCO)c2ccc(Cl)cc2)CCN(c2ncnc3[nH]ccc23)CC1 [Capivasertib] + COc1nnc2ccc(N3CCC(c4ccc(OCCN5CCN(C)C(=O)[C@H]5C)cc4)CC3)nn12 [AZD5153] (first compound max 10 µM, 7x7, partner max 1 µM) | 0.0611 | 0.0228 | 0.058 | 0.0237 | 0.0494 | 0.0193 | 0.041 | 0.06 | 0.0184 | -0.0158 | 0.0335 | -0.005 | -0.0161 | -0.139 | -0.0496 | -0.0101 | -0.0585 | 0.0149 | 0.0908 | 0.0642 |
| NC1(C(=O)N[C@@H](CCO)c2ccc(Cl)cc2)CCN(c2ncnc3[nH]ccc23)CC1 [Capivasertib] + C[C@@H]1COCCN1C2=NC(=NC(=C2)C3(CC3)[S@](=N)(=O)C)C4=C5C=CNC5=NC=C4 [AZD6738] (first compound max 10 µM, 7x7, partner max 10 µM) | -0.0514 | -0.0449 | 0.0092 | 0.0092 | -0.0462 | -0.0239 | -0.0463 | -0.0739 | 0.0028 | -0.0376 | -0.0161 | 0.0393 | -0.0086 | -0.0279 | -0.0468 | -0.0856 | -0.0247 | -0.0375 | -0.0557 | -0.0494 |
| NC1(C(=O)N[C@@H](CCO)c2ccc(Cl)cc2)CCN(c2ncnc3[nH]ccc23)CC1 [Capivasertib] + Cn1cnc2c(F)c(Nc3ccc(Br)cc3Cl)c(C(=O)NOCCO)cc21 [Selumetinib] (first compound max 10 µM, 7x7, partner max 10 µM) | 0.0697 | 0.0697 | 0.0792 | -0.0598 | 0.0225 | -0.009 | 0.0007 | -0.0194 | 0.0266 | 0.0079 | -0.133 | 0.0413 | -0.0089 | -0.131 | 0.0639 | 0.0248 | -0.0063 | 0.0345 | 0.0241 | 0.0234 |
| Cc1nc(Nc2ncc(C(=O)Nc3c(C)cccc3Cl)s2)cc(N2CCN(CCO)CC2)n1 [Dasatinib] + CC(=O)Nc1cccc(-n2c(=O)n(C3CC3)c(=O)c3c(Nc4ccc(I)cc4F)n(C)c(=O)c(C)c32)c1 [Trametinib] (first compound max 2 µM, 7x7, partner max 1 µM) | -0.023 | 0.0433 | -0.0032 | -0.128 | 0.0053 | -0.0361 | -0.0361 | -0.0526 | 0.0824 | 0.0706 | -0.0529 | -0.0258 | 0.0126 | -0.0149 | 0.025 | -0.0338 | -0.0202 | -0.0708 | 0.0187 | -0.0414 |
| COc1cc2ncnc(Nc3ccc(F)c(Cl)c3)c2cc1OCCCN1CCOCC1 [Gefitinib] + CC(C)n1c(=O)n(C)c2cnc3cc(F)c(-c4ccc(OCCCN5CCCCC5)nc4)cc3c21 [AZD1390] (first compound max 10 µM, 7x7, partner max 0.3 µM) | -0.0891 | -0.0871 | -0.0419 | -0.0578 | -0.0373 | -0.0525 | -0.0491 | -0.0685 | -0.0388 | -0.0401 | -0.0482 | -0.0801 | -0.0238 | -0.0088 | -0.0193 | -0.0473 | -0.0586 | -0.0887 | -0.0557 | -0.0941 |
| CS(=O)(=O)CCNCc1ccc(-c2ccc3ncnc(Nc4ccc(OCc5cccc(F)c5)c(Cl)c4)c3c2)o1 [Lapatinib] + C[C@@H](Oc1cc(-c2cnn(C3CCNCC3)c2)cnc1N)c1c(Cl)ccc(F)c1Cl [Crizotinib] (first compound max 10 µM, 7x7, partner max 10 µM) | -0.0709 | 0.0118 | -0.0185 | -0.0261 | -0.0297 | -0.0289 | 0.0138 | -0.0984 | -0.03 | -0.0794 | -0.0321 | 0.0255 | -0.0344 | -0.0273 | 0.0287 | -0.0433 | -0.0392 | 0.0306 | -0.0861 | -0.0148 |
